{"source": "patent US20200046654A1", "about": "“BUPROPION AND PHARMACEUTICAL COMPOSITION FOR TREATING CANCER AND METHOD FOR INHIBITING MIGRATION OF TUMOR CELLS” (NATIONAL CHIAO TUNG UNIVERSITY, priority 2018, published 2020)", "key": {"MDA-MB-231 cells [1]": {"system": "MDA-MB-231 cells", "assay": "cell invasion assay (Matrigel invasion chambers)", "format": "cell-based, human", "conditions": "48 hours, with or without nicotine", "method": "The inhibitory effect of bupropion on tumor invasion was tested by cell invasion assay. MDA-MB-231 cells were plated on to Matrigel invasion chambers in serum-starved medium, and the cells in the lower chamber were cultured using normal medium. The media in both of the upper and the lower chambers contained 0.1 μM bupropion, or 1 μM bupropion, and the cells were treated with or without (control group) nicotine. After the cells were cultured for 48 hours, the upper chambers were washed with PBS and fixed with formaldehyde for 30 minutes. The cells in the upper chambers were stained with crystal violet for two hours, and photos were acquired under a microscope. The numbers of invading tumor cells were calculated by ImageJ software."}, "MDA-MB-231 cells [2]": {"system": "MDA-MB-231 cells", "assay": "cell migration assay, MDA-MB-231", "format": "cell-based, human", "conditions": "12 hours, with or without nicotine", "method": "(§1) MDA-MB-231 cells well treated with or without (control group) nicotine, DMSO, 0.1 μM, and 1 μM bupropion were then respectively added to the cells. Twelve hours after bupropion addition, the cells were fixed with formaldehyde, and stained with PI for 30 minutes; then photos of the cells were acquired. The numbers of migrating cells were calculated by imageJ software. This assay was repeated 3 times."}, "MDA-MB-453": {"system": "MDA-MB-453", "assay": "cell migration assay, MDA-MB-453", "format": "cell-based, human", "method": "as §1\nIn addition, a HER2 overexpression subtype of a breast cancer cell line, MDA-MB-453, was used to test the inhibitory effect of bupropion on tumor migration. The experimental method was the same as the cell migration assay of Example 7 above."}, "[3]": {"system": "MDA-MB-231 cells with a luminescence reporter gene", "assay": "MDA-MB-231-based spontaneous pulmonary metastasis animal model", "format": "in vivo, SCID mice", "conditions": "two months; for number of the migrating tumor cells to the lungs (photon flux): bupropion i.p. three times a week, 100 or 200 μg per kilogram", "method": "MDA-MB-231 cells with a luminescence reporter gene were implanted into severe combined immunodeficiency (SCID) mice. The nicotine treatment was carried out by adding nicotine (10 μg/ml) to the drinking water of the mice. The mice were injected intraperitoneally with bupropion three times a week at doses of 100 or 200 μg per kilogram. After two months, the mice were sacrificed and the lungs were dissected. IVIS was used to take the luminescence images of the lungs. The photon influx measured in the images represents the metastasis level of the mouse tumor cells to the lung tissue."}, "CHRNA9/CFP and ERBB2/YFP": {"biological_target": "CHRNA9/CFP and ERBB2/YFP (Homo sapiens, UniProt Q9UGM1)", "sequence (Q9UGM1 23-479)": "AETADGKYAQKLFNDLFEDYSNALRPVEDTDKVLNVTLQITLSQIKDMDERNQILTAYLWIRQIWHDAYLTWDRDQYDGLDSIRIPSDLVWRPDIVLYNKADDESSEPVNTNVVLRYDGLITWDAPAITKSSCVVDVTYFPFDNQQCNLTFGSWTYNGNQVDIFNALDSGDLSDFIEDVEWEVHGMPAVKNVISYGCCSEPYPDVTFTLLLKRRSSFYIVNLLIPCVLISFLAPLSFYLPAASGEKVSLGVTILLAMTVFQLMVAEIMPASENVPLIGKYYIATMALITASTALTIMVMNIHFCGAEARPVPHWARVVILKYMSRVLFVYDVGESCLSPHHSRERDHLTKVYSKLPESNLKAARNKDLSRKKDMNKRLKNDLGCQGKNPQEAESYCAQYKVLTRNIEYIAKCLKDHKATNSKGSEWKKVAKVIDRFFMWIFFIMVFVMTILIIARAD", "description": "In order to further investigate the interaction between CHRNA9 and ERBB2 ex vivo, a plasmid expressing CHRNA9/CFP and a plasmid expressing ERBB2/YFP were constructed and then co-transfected into MDA-MB-231 cells. FRET and fluorescence-lifetime imaging microscopy (FLIM) were used.\nTo further clarify whether CHRNA9 and ERBB2 are dissociated after nicotine exposure, two-photon FLIM was used to monitor the FRET activity between CHRNA9/CFP and ERBB2/YFP. The plasmids expressing CHRNA9/CFP and the plasmids expressing ERBB2/YFP were co-transfected into MDA-MB-231 cells. After two days, the cells were treated with 10 μM nicotine."}, "CHRNA9/ERBB2 complex": {"biological_target": "CHRNA9/ERBB2 complex (Homo sapiens, UniProt Q9UGM1)", "sequence (Q9UGM1 23-479, one chain of several)": "as the sequence (Q9UGM1 23-479) above", "conditions": "oral nicotine, at 30 minutes of exposure, vs before exposure", "quoted_text": "Split luciferase complementation assay was used to investigate the association and dissociation between CHRNA9 and ERBB2.\nThe N terminal (Nluc) and the C terminal (Cluc) of luciferase were respectively constructed with ERBB2 and CHRNA9 to form the plasmids expressing the fusion proteins. When ERBB2 and CHRNA9 interact with each other, the Nluc and the Cluc are also close to each other to assemble together, and present luciferase activity. Therefore, after Luciferin addition, luminescence can be generated. When ERBB2 and CHRNA9 dissociate from each other, the Nluc and Cluc also dissociate from each other; therefore, no luciferase activity exists.\nThen a xenograft animal model was used. Plasmids expressing ERBB2/Nluc fusion protein and plasmids expressing CHRNA9/Cluc fusion protein were co-transfected into MDA-MB-231 cells, then the cells expressing the fusion proteins were injected into the mammary pads of nude mice."}}}
{"smiles": "CC(NC(C)(C)C)C(=O)c1cccc(Cl)c1", "note": "(stereo not drawn) [bupropion]", "values": [{"measurement": "invasion of MDA-MB-231 cells", "setting": "MDA-MB-231 cells [1]; 0.1 μM bupropion", "value": "significantly inhibited"}, {"measurement": "invasion of MDA-MB-231 cells", "setting": "MDA-MB-231 cells [1]; 1 μM bupropion", "value": "significantly inhibited"}, {"measurement": "migration of MDA-MB-231 cells", "setting": "MDA-MB-231 cells [2]; 0.1 μM bupropion", "value": "significantly inhibited"}, {"measurement": "migration of MDA-MB-231 cells", "setting": "MDA-MB-231 cells [2]; 1 μM bupropion", "value": "significantly inhibited"}, {"measurement": "migration of MDA-MB-453 cells", "setting": "MDA-MB-453; 0.1 μM bupropion", "value": "significantly inhibited"}, {"measurement": "migration of MDA-MB-453 cells", "setting": "MDA-MB-453; 1 μM bupropion", "value": "significantly inhibited"}, {"measurement": "number of the migrating tumor cells to the lungs (photon flux)", "setting": "[3]; nicotine-free mice", "value": "significantly decreased"}, {"measurement": "number of the migrating tumor cells to the lungs (photon flux)", "setting": "[3]; nicotine-treated mice", "value": "significantly decreased"}]}
{"smiles": "CN1CCCC1c1cccnc1", "note": "(stereo not drawn) [nicotine]", "values": [{"measurement": "FRET activity on the cell membrane between CHRNA9/CFP and ERBB2/YFP", "setting": "CHRNA9/CFP and ERBB2/YFP; after 10 μM nicotine exposure, MDA-MB-231 cells", "value": "gradually decreased"}, {"measurement": "FRET activity on the membrane after removal of nicotine", "setting": "CHRNA9/CFP and ERBB2/YFP; cells washed with PBS to remove nicotine", "value": "gradually recovered to the baseline"}, {"measurement": "number of the metastatic tumor cells in the lung tissues (photon flux)", "setting": "[3]; nicotine 10 μg/ml in drinking water", "value": "significantly increased"}, {"measurement": "photon influx (luciferase activity in tumor region) relative to control group", "setting": "CHRNA9/ERBB2 complex", "value": 26.3, "unit": "%"}]}
